Usually melting point stands for the temperature, or range, at which the solid turns liquid.

Data set [1] concerns thrombus formation in an arteriovenous shunt. Description: Arteriovenous shunt model (rat), antithrombotic effect. The format is in vivo. The note with it: oral administration, read-out: ED50 [mg/kg] p.o. The protocol:
Fasting male rats (strain: HSD CPB:WU) weighing 200-250 g were anesthetized with a Rompun/Ketavet solution (12 mg/kg/50 mg/kg). Thrombus formation was induced in an arteriovenous shunt by a method based on that described by Christopher N. Berry et al., Br. J. Pharmacol. (1994), 113, 1209-1214. For this purpose, the left jugular vein and the right carotid artery were exposed. An extracorporeal shunt was formed between the two vessels using a 10 cm-long polyethylene tube (PE 60). This polyethylene tube was secured in the middle by tying in a further 3 cm-long polyethylene tube (PE 160) which contained a roughened nylon thread forming a loop to produce a thrombogenic surface. The extracorporeal circulation was maintained for 15 minutes. The shunt was then removed and the nylon thread with the thrombus was immediately weighed. The blank weight of the nylon thread had been found before the start of the experiment. The test substances were administered either intravenously through the tail vein or orally by gavage to conscious animals before setting up the extracorporeal circulation.

Consider `O=C(NC[C@H]1CN(c2ccc(N3CCOCC3=O)cc2)C(=O)O1)c1ccc(Cl)s1` [Example 44, 5-Chloro-N-({(5S)-2-oxo-3-[4-(3-oxo-4-morpholinyl)phenyl]-1,3-oxazolidin-5-yl}methyl)-2-thiophenecarboxamide], for which the ED50 in data set [1] was 3 mg/kg.

For the compound `O=C(NC[C@H]1CN(c2ccc(N3CCCOC3=O)cc2)C(=O)O1)c1ccc(Cl)s1` [Example 255], the melting point fell in the range of 228 to 230 °C.

The values above are taken from patent US20080306070A1, “Combination Therapy Comprising Substituted Oxazolidinones for the Prevention and Treatment of Cerebral Circulatory Disorders” (BAYER HEALTHCARE AG, priority 2005, published 2008).
